Experimental data published in patent US9120780B2, “Indole or indazole derivative or salt thereof” (TAIHO PHARMACEUTICAL CO., LTD., priority 2011, dated 2015).

Experiments:
[1] = tested on: SK-BR-3 cells; assay: Measurement of cell growth inhibition (crystal violet staining); type: cell-based; settings: Homo sapiens, 72 hours culture with test substance
Method: Cell growth was measured by a crystal violet staining method. […] The cells were cultured in a 5% CO2 incubator at 37° C. for 24 hours, and then test substances were added to the plate, followed by culturing for further 72 hours. […] The plate was left to stand at room temperature for 20 minutes for staining the cells. The plate was washed with water and dried, and 100 μL of a mixed solution of 0.05 M NaH2PO4 and ethanol (mixture in equal amounts) was added to each well. The absorbance at 540 nm was measured with a microplate reader (MTP-450, Corona Electric Co., Ltd.) as an index of the number of cells in each well. The inhibition rate (%) of cell growth by a compound of the present invention was determined by the following equation using the absorbance of a drug-untreated group (control) as a control. […] Inhibition rate (%)=(C−T)/C×100 T: absorbance in a well to which a test substance was added C: absorbance in a well to which no test substance was added

[2] = target: human HSP90 alpha protein (N-terminal, amino acids 2-236) (Homo sapiens (Human), UniProt P07900); assay: Measurement of HSP90-binding activity (AlphaScreen competitive assay, biotin-labeled geldanamycin); settings: inhibition of biotin-labeled geldanamycin binding to purified HSP90; read-out: HSP-binding activity IC50
Method: First, a solution of purified HSP90 was prepared as follows. […] The pET-HSP90N was introduced into Escherichia coli cells (BL21 (DE3), Stratagene Inc.), and then the Escherichia coli cells were cultured in the presence of 0.5 mM isopropyl-beta-D-thiogalactopyranoside (Sigma-Aldrich Corp.) at 37° C. for 4 hours. The Escherichia coli cells were collected, suspended in a lysis buffer (50 mM Tris-HCl (pH 7.5), 200 mM NaCl), and sonicated. The sonicated cell solution was centrifuged (40,000×g, 20 minutes) to obtain supernatant as a crude extract. The crude extract was fractionated by Ni Sepharose High Performance (GE Healthcare Japan Corporation) chromatography and HiLoad 26/60 Superdex 75 pg (GE Healthcare Japan Corporation), and the fraction in which HSP90 protein was concentrated was prepared so as to be a 50 mM Tris-HCl (pH 7.5)/20% glycerol solution as a purified HSP90 solution. The purified HSP90 solution was divided and stored at −80° C. until use.
The HSP90-binding activity was measured by an AlphaScreen competitive assay system. […] After reaction at room temperature for 2 hours, biotin-labeled geldanamycin was added to each reaction solution in an amount of 40 nM, followed by reaction for further 1 hour. […] After reaction in a dark place at room temperature for 1 hour, the fluorescence intensity in each well was measured with a multilabel plate reader, EnVision (Perkin Elmer, Inc.). The inhibition rate (%) of biotin-labeled geldanamycin binding by a compound of the present invention was determined by the following equation using the fluorescence signal of a test substance-free group (control) as a control. […] Inhibition rate (%)=(C−T)/C×100 T: signal in a well to which a test substance was added C: signal in a well to which no test substance was added

IC50 [1] [µM] | IC50 [2] [µM] | Compound
0.56 | 0.74 | CC(C)c1nn(-c2ccc(C(N)=O)cc2Cl)c2cccc(-n3cnc(-c4cccnc4)c3)c12 [Example 3, 3-Chloro-4-(3-isopropyl-4-(4-(pyridin-3-yl)-1H-imidazol-1-yl)-1H-indazol-1-yl)benzamide]
0.12 | 0.14 | CC(C)Nc1cc(C(N)=O)ccc1-n1nc(C(F)(F)F)c2c(-n3cnc(-c4cccnc4)c3)cccc21 [Example 22, 3-(Isopropylamino)-4-(4-(4-(pyridin-3-yl)-1H-imidazol-1-yl)-3-(trifluoromethyl)-1H-indazol-1-yl)benzamide]
0.13 | 0.08 | Cn1cc(-c2cn(-c3cccc4c3c(C(F)(F)F)nn4-c3ccc(C(N)=O)cc3N)cn2)cn1 [Example 24, 3-Amino-4-(4-(4-(1-methyl-1H-pyrazol-4-yl)-1H-imidazol-1-yl)-3-(trifluoromethyl)-1H-indazol-1-yl)benzamide]
0.05 | 0.09 | CCc1cc(C(N)=O)ccc1-n1nc(C(F)(F)F)c2c(-n3cnc(-c4cnn(C)c4)c3)cccc21 [Example 18, 3-Ethyl-4-(4-(4-(1-methyl-1H-pyrazol-4-yl)-1H-imidazol-1-yl)-3-(trifluoromethyl)-1H-indazol-1-yl)benzamide]
0.08 | 0.3 | CC(C)c1nn(-c2ccc(C(N)=O)cc2NC2CCC2)c2cccc(-n3cnc(-c4cccnc4)c3)c12 [Example 11, 3-(Cyclobutylamino)-4-(3-isopropyl-4-(4-(pyridin-3-yl)-1H-imidazol-1-yl)-1H-indazol-1-yl)benzamide]
0.07 | 0.15 | Cn1cc(-c2cn(-c3cccc4c3c(C(F)(F)F)nn4-c3ccc(C(N)=O)cc3NC3CCC3)cn2)cn1 [Example 21, 3-(Cyclobutylamino)-4-(4-(4-(1-methyl-1H-pyrazol-4-yl)-1H-imidazol-1-yl)-3-(trifluoromethyl)-1H-indazol-1-yl)benzamide]
0.09 | 0.14 | CC(C)Nc1cc(C(N)=O)ccc1-n1nc(C(F)(F)F)c2c(-n3cnc(-c4cnn(C)c4)c3)cccc21 [Example 20, 3-(Isopropylamino)-4-(4-(4-(1-methyl-1H-pyrazol-4-yl)-1H-imidazol-1-yl)-3-(trifluoromethyl)-1H-indazol-1-yl)benzamide]
0.02 | 0.23 | CCNc1cc(-n2nc(C(F)(F)F)c3c(-n4cnc(-c5cnn(C)c5)c4)cccc32)ccc1C(N)=O [Example 15, 2-(Ethylamino)-4-(4-(4-(1-methyl-1H-pyrazol-4-yl)-1H-imidazol-1-yl)-3-(trifluoromethyl)-1H-indazol-1-yl)benzamide]
0.3 | 0.49 | Cc1cc(C(N)=O)ccc1-n1nc(C(F)(F)F)c2c(-n3cnc(-c4cccnc4)c3)cccc21 [Example 17, 3-Methyl-4-(4-(4-(pyridin-3-yl)-1H-imidazol-1-yl)-3-(trifluoromethyl)-1H-indazol-1-yl)benzamide]
0.1 | 0.25 | CC(C)Nc1cc(C(N)=O)ccc1-n1nc(C(C)C)c2c(-n3cnc(-c4cccnc4)c3)cccc21 [Example 10, 4-(3-Isopropyl-4-(4-(pyridin-3-yl)-1H-imidazol-1-yl)-1H-indazol-1-yl)-3-(isopropylamino)benzamide]
0.03 | 0.29 | CC(C)(C)Nc1cc(-n2nc(C(F)(F)F)c3c(-n4cnc(-c5cccnc5)c4)cccc32)ccc1C(N)=O [Example 16, 2-(Tert-butylamino)-4-(4-(4-(pyridin-3-yl)-1H-imidazol-1-yl)-3-(trifluoromethyl)-1H-indazol-1-yl)benzamide]
0.17 | 0.1 | NC(=O)c1ccc(-n2nc(C(F)(F)F)c3c(-n4cnc(-c5cccnc5)c4)cccc32)c(N)c1 [Example 25, 3-Amino-4-(4-(4-(pyridin-3-yl)-1H-imidazol-1-yl)-3-(trifluoromethyl)-1H-indazol-1-yl)benzamide]
0.06 | 0.12 | CC(C)Nc1cc(C(N)=O)ccc1-n1nc(C(C)C)c2c(-n3cnc(-c4cnn(C)c4)c3)cccc21 [Example 12, 4-(3-Isopropyl-4-(4-(1-methyl-1H-pyrazol-4-yl)-1H-imidazol-1-yl)-1H-indazol-1-yl)-3-(isopropylamino)benzamide]

The next lines start with the compound.

Compound | IC50 [1] [µM] | IC50 [2] [µM]
CCc1cn(-c2ccc(C(N)=O)c(NC(C)(C)C)c2)c2cccc(-n3cnc(-c4cnn(C)c4)c3)c12 [Example 48, 2-(Tert-butylamino)-4-{3-ethyl-4-(4-(1-methyl-1H-pyrazolo-4-yl)-1H-imidazolo-1-yl)-1H-indol-1-yl}benzamide] | 0.01 | 0.26
COc1ccc2c(c1)cc(C)n2-c1ccc(C(N)=O)c(Nc2ccccc2)c1 [Comparative Example 5, reference compound] | > 10 | > 100
Cc1cn(-c2ccc(C(N)=O)c(NC(C)(C)C)c2)c2cccc(-n3cnc(-c4cnn(C)c4)c3)c12 [Example 46, 2-(Tert-butylamino)-4-{3-methyl-4-(4-(1-methyl-1H-pyrazolo-4-yl)-1H-imidazolo-1-yl)-1H-indol-1-yl}benzamide] | 0.05 | 0.19
CCCc1cn(-c2ccc(C(N)=O)cc2CC)c2cccc(-n3cnc(-c4cnn(C)c4)c3)c12 [Example 49, 3-Ethyl-4-{4-(4-(1-methyl-1H-pyrazolo-4-yl)-3-propyl-1H-imidazolo-1-yl)-1H-indol-1-yl}benzamide] | 0.03 | 0.12
CC(C)c1nn(-c2ccc(C(N)=O)nc2)c2cccc(-n3cnc(-c4cnn(C)c4)c3)c12 [Example 7, 5-(3-Isopropyl-4-(4-(1-methyl-1H-pyrazol-4-yl)-1H-imidazol-1-yl)-1H-indazol-1-yl)-2-pyridinecarboxyamide] | 1.19 | 0.37
CC(C)c1cn(-c2ccc(C(N)=O)c(NC(C)(C)C)c2)c2cccc(-n3cnc(-c4cnn(C)c4)c3)c12 [Example 52, 2-(Tert-butylamino)-4-{3-isopropyl-4-(4-(1-methyl-1H-pyrazolo-4-yl)-1H-imidazolo-1-yl)-1H-indol-1-yl}benzamide] | 0.02 | 0.42
CCc1cc(C(N)=O)ccc1-n1cc(C(C)C)c2c(-n3cnc(-c4cnn(C)c4)c3)cccc21 [Example 51, 3-Ethyl-4-{3-isopropyl-4-(4-(1-methyl-1H-pyrazolo-4-yl)-1H-imidazolo-1-yl)-1H-indol-1-yl}benzamide] | 0.06 | 0.16
NC(=O)c1ccc(-n2ccc3ccccc32)c(Cl)c1 [Comparative Example 6, reference compound] | – | > 100
CC(C)c1nn(-c2ccc(C(N)=O)cc2Cl)c2cccc(-n3cnc(-c4cnn(C)c4)c3)c12 [Example 5, 3-Chloro-4-(3-isopropyl-4-(4-(1-methyl-1H-pyrazol-4-yl)-1H-imidazol-1-yl)-1H-indazol-1-yl)benzamide] | 0.27 | 0.24
CC(C)c1nn(-c2ccc(C(N)=O)cc2NC2CCC2)c2cccc(-n3cnc(-c4cnn(C)c4)c3)c12 [Example 13, 3-(Cyclobutylamino)-4-(3-Isopropyl-4-(4-(1-methyl-1H-pyrazol-4-yl)-1H-imidazol-1-yl)-1H-indazol-1-yl)benzamide] | 0.06 | 0.2
COc1cc2ccn(-c3ccc(C#N)c(Nc4ccccc4)c3)c2cc1OC [Comparative Example 3, reference compound] | – | > 10
Cn1cc(-c2cn(-c3cccc4c3c(C(F)(F)F)nn4-c3ccc(C(N)=O)c(NC(C)(C)C)c3)cn2)cn1 [Example 14, 2-(Tert-butylamino)-4-(4-(4-(1-methyl-1H-pyrazol-4-yl)-1H-imidazol-1-yl)-3-(trifluoromethyl)-1H-indazol-1-yl)benzamide] | 0.01 | 0.27
COc1cccc2c1ccn2-c1ccc(C(N)=O)c(NC2CCC(O)CC2)c1 (centres unmarked) [Comparative Example 2, reference compound] | – | > 100
COc1ccc2ccn(-c3ccc(C(N)=O)c(NC4CCC(O)CC4)c3)c2c1 (centres unmarked) [Comparative Example 1, reference compound] | – | > 100
